Patent publication US12357711B2, “PSMA binding dual mode radiotracer and therapeutic” (Technische Universität München, priority 2019, dated 2025)
“And” between values parts separate entries of the source, which are not always exact repeats. Identical values can stand only once.

Assays:
human serum albumin = molecular target: T1, human serum albumin (Homo sapiens, UniProt P02768); experiment: HSA binding on Chiralpak HSA column; format: in vitro ADME; conditions: Chiralpak HSA column (50 × 3 mm, 5 μm)
T1 construct: purchased H13H-2433
Procedure: The mobile phase (A: NH4OAc, 50 mM in water, pH 7 and B: isopropanol) was freshly prepared for each experiment and only used for one day. The column was kept at room temperature and each run was stopped after detection of the signal to reduce the acquisition time. All substances were dissolved in a 0.5 mg/ml concentration in 50% 2-propanol and 50% 50 mM pH 6.9 ammonium acetate buffer. […] All nine reference substances were injected consecutively to establish a non-linear regression with Origin Pro 2016G.

[1] = system: LNCaP tumor-bearing SCID mice; experiment: Biodistribution at 1 h p.i.; format: in vivo
Procedure: FIG. 10: Biodistribution (in % ID/g) of ^18E-labeled rhPSMA tracers at 1 h p.i in LNCaP tumor-bearing SCID mice. Data are expressed as mean±SD (n=4 for rhPSMA7.1, n=5 for 7.2, n=4 for 7.3, n=5 for 7.4 and n=3 for 7-rac).

patients = experiment: Human biodistribution and uptake in tumor lesions (PET/CT, SUV); format: in vivo; conditions: for ratio SUVmax to background, mean / ratio SUVmean to background, mean: human PET/CT, background gluteal muscle
Procedure: Human biodistribution was estimated by analysing clinical ^18F-rhPSMA-7- and ^18F-rhPSMA-7.3-PET/CT exams in 47 and 32 patients, respectively.
The mean and maximum standardized uptake values (SUVmean/SUVmax) were determined for background (gluteal muscle), normal organs (salivary glands, blood pool, lung, liver, spleen, pancreas, duodenum, kidney, bladder, bone) and three representative tumor lesions. Tumor uptake was analyzed in 89 lesions (26 primary tumors/local recurrences, 23 bone, 38 lymph node and 2 visceral metastases) and 63 lesions (14 primary tumors/local recurrences, 30 bone, 18 lymph node and 1 visceral metastases) for ^18F-rhPSMA-7 and ^18F-rhPSMA-7.3, respectively.
Organ-background and Tumor-background ratios were calculated.

[2] = clinical PET/CT, gluteal muscle
[3] = clinical PET/CT, non-diseased bone
[4] = clinical PET/CT, listed as 18F-rhPSMA-7.3

T1 sequence (P02768 25-609): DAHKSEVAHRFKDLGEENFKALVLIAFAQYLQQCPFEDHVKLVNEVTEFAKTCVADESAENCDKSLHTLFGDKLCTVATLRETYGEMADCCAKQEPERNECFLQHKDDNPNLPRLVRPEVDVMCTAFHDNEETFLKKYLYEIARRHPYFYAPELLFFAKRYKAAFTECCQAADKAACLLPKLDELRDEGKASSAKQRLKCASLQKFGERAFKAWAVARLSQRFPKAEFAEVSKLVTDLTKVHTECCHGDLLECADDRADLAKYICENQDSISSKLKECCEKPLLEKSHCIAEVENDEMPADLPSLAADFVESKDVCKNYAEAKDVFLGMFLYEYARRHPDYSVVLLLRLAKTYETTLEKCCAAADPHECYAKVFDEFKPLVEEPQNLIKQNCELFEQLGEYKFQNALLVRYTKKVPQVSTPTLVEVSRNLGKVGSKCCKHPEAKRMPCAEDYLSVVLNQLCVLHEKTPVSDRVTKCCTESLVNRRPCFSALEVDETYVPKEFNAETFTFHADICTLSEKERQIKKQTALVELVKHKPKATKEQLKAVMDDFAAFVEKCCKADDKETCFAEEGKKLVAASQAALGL

## CC(C)(C)[Si](F)(c1ccc(C(=O)NC[C@@H](NC(=O)CC[C@@H](C(=O)O)N2CCN(CC(=O)[O-])CCN(CC(=O)[O-])CCN(CC(=O)[O-])CC2)C(=O)N[C@H](CCCCNC(=O)CCC(=O)NCCC[C@@H](NC(=O)CC[C@H](NC(=O)N[C@@H](CCC(=O)O)C(=O)O)C(=O)O)C(=O)O)C(=O)O)cc1)C(C)(C)C.[Ga+3] [rhPSMA7.3, [^19F][^natGa]D-Dap-S-DOTAGA-rhPSMA7]
Human serum albumin
  HSA Binding: 96.9%
[1]
  Biodistribution adrenals: 2.2 ± 0.83 % ID/g
  Biodistribution blood: 0.96 ± 0.24 % ID/g
  Biodistribution bone: 0.38 ± 0.32 % ID/g
  Biodistribution heart: 0.87 ± 0.17 % ID/g
  Biodistribution intestine: 0.35 ± 0.07 % ID/g
  Biodistribution kidneys: 292 ± 45.1 % ID/g
  Biodistribution liver: 0.69 ± 0.13 % ID/g
  Biodistribution lung: 2.2 ± 0.35 % ID/g
  Biodistribution muscle: 0.33 ± 0.15 % ID/g
  Biodistribution pancreas: 0.63 ± 0.44 % ID/g
  Biodistribution spleen: 16.6 ± 2.6 % ID/g
  Biodistribution stomach: 0.44 ± 0.23 % ID/g
[1]; LNCaP tumor
  Biodistribution tumor: 18.3 ± 7.2 % ID/g
patients; bladder
  ratio SUVmax to background, mean: 3.1
  ratio SUVmean to background, mean: 3.1
patients; bloodpool
  ratio SUVmax to background, mean: 2.8
  ratio SUVmean to background, mean: 2.9
patients; bone
  ratio SUVmax to background, mean: 2.0
  ratio SUVmean to background, mean: 2.1
patients; clinical PET/CT
  SUVmax bladder, max: 6.0
  SUVmax bladder, mean: 3.1
  SUVmax bladder, min: 1.1
  SUVmax bloodpool, max: 3.9
  SUVmax bloodpool, mean: 2.8
  SUVmax bloodpool, min: 1.9
  SUVmax duodenum, max: 32.2
  SUVmax duodenum, mean: 16.4
  SUVmax duodenum, min: 6.1
  SUVmax kidney, max: 99.9
  SUVmax kidney, mean: 51.9
  SUVmax kidney, min: 30.9
  SUVmax liver, max: 15.4
  SUVmax liver, mean: 9.7
  SUVmax liver, min: 4.6
  SUVmax lungs, max: 1.9
  SUVmax lungs, mean: 1.1
  SUVmax lungs, min: 0.7
  SUVmax pancreas, max: 7.8
  SUVmax pancreas, mean: 4.2
  SUVmax pancreas, min: 2.4
  SUVmax parotic gland, max: 38.3
  SUVmax parotic gland, mean: 24.6
  SUVmax parotic gland, min: 11.2
  SUVmax spleen, max: 22.5
  SUVmax spleen, mean: 11.4
  SUVmax spleen, min: 5.0
  SUVmax submandibular gland, max: 47.4
  SUVmax submandibular gland, mean: 28.4
  SUVmax submandibular gland, min: 14.6
  SUVmean bladder, max: 4.1
  SUVmean bladder, min: 0.7
  SUVmean bloodpool, max: 2.5
  SUVmean bloodpool, min: 1.3
  SUVmean duodenum, max: 23.0
  SUVmean duodenum, mean: 11.0
  SUVmean duodenum, min: 3.0
  SUVmean kidney, max: 70.6
  SUVmean kidney, mean: 35.5
  SUVmean kidney, min: 20.7
  SUVmean liver, max: 12.3
  SUVmean liver, mean: 7.3
  SUVmean liver, min: 3.2
  SUVmean lungs, max: 1.1
  SUVmean lungs, mean: 0.7
  SUVmean lungs, min: 0.4
  SUVmean pancreas, max: 5.2
  SUVmean pancreas, mean: 2.8
  SUVmean pancreas, min: 1.6
  SUVmean parotic gland, max: 25.0
  SUVmean parotic gland, mean: 16.0
  SUVmean parotic gland, min: 8.2
  SUVmean spleen, max: 17.9
  SUVmean spleen, mean: 8.5
  SUVmean spleen, min: 3.7
  SUVmean submandibular gland, max: 33.4
  SUVmean submandibular gland, mean: 19.6
  SUVmean submandibular gland, min: 10.4
  tracer retention in the bladder compared with ^18F-rhPSMA-7: significantly lower
  uptake in tumor lesions compared with ^18F-rhPSMA-7: significantly higher
patients; [2]
  SUVmax background, max: 1.7
  SUVmax background, mean: 1.0
  SUVmax background, min: 0.6
  SUVmean background, max: 1.1
  SUVmean background, mean: 0.7
  SUVmean background, min: 0.4
patients; [3]
  SUVmax bone, max: 3.4
  SUVmax bone, mean: 2.1
  SUVmax bone, min: 1.1
  SUVmean bone, max: 2.2
  SUVmean bone, mean: 1.3
  SUVmean bone, min: 0.7
patients; clinical PET/CT, tumor lesions
  SUVmax tumor, max: 316.0
  SUVmax tumor, mean: 44.0
  SUVmax tumor, min: 2.4
  SUVmean tumor, max: 224.1
  SUVmean tumor, min: 1.6
patients; clinical PET/CT, tumor lesions, listed as 18F-rhPSMA-7.3
  SUVmean tumor, mean: 32.5±42.7 and 32.5
patients; [4]
  SUVmean bladder, mean: 2.0 and 2.0±0.8
  SUVmean bloodpool, mean: 1.9 and 1.8
patients; duodenum
  ratio SUVmax to background, mean: 16.2
  ratio SUVmean to background, mean: 17.1
patients; kidney
  ratio SUVmax to background, mean: 51.8
  ratio SUVmean to background, mean: 55.6
patients; liver
  ratio SUVmax to background, mean: 9.7
  ratio SUVmean to background, mean: 11.4
patients; lungs
  ratio SUVmax to background, mean: 1.0
  ratio SUVmean to background, mean: 1.0
patients; pancreas
  ratio SUVmax to background, mean: 4.1
  ratio SUVmean to background, mean: 4.4
patients; parotid gland
  ratio SUVmax to background, mean: 24.7
  ratio SUVmean to background, mean: 25.2
patients; spleen
  ratio SUVmax to background, mean: 11.4
  ratio SUVmean to background, mean: 13.3
patients; submandibular gland
  ratio SUVmax to background, mean: 28.2
  ratio SUVmean to background, mean: 30.6
patients; tumor lesions
  ratio SUVmax to background, mean: 43.6
  ratio SUVmean to background, mean: 50.8
